Test results from ChEMBL document CHEMBL5614421, “Structure-activity relationship study of Pseudellone C as anti-glioma agents by targeting TNF/TNFR signaling pathway” (Eur J Med Chem, 2024).
Calls of active or inactive are those of the source. No cut-off for these calls is given here.

Legend:
[1] = tested on: LN-229; assay: Induction of apoptosis in human LN-229 cells assessed as late apoptotic cells at 20 uM incubated for 24 hrs in presence of R7050 by Annexin V-APC/7-AAD staining based flow cytometric analysis (reference value: 4.86 %); format: functional
[2] = tested on: LN-229; assay: Induction of apoptosis in human LN-229 cells assessed as necrotic cells at 20 uM incubated for 12 hrs by Annexin V-APC/7-AAD staining based flow cytometric analysis (reference value: 0.7 %); format: functional
[3] = tested on: U-87 MG; assay: Induction of apoptosis in human U-87 MG cells assessed as late apoptotic cells at 20 uM incubated for 24 hrs in presence of R7050 by Annexin V-APC/7-AAD staining based flow cytometric analysis (reference value: 7.7 %); format: functional, U-87MG ATCC
[4] = tested on: U-87 MG; assay: Induction of apoptosis in human U-87 MG cells assessed as early apoptotic cells at 10 uM incubated for 24 hrs by Annexin V-APC/7-AAD staining based flow cytometric analysis (reference value: 1.59 %); format: functional, U-87MG ATCC
[5] = tested on: LN-229; assay: Induction of apoptosis in human LN-229 cells assessed as late apoptotic cells at 20 uM incubated for 24 hrs by Annexin V-APC/7-AAD staining based flow cytometric analysis (reference value: 5.1 %); format: functional
[6] = tested on: U-87 MG; assay: Induction of apoptosis in human U-87 MG cells assessed as viable cells at 20 uM incubated for 24 hrs by Annexin V-APC/7-AAD staining based flow cytometric analysis (reference value: 94.6 %); format: functional, U-87MG ATCC; conditions: read-out: Activity
[7] = tested on: U-87 MG; assay: Induction of apoptosis in human U-87 MG cells assessed as reduction in Bcl-2/Bax ratio at 5 to 20 uM incubated for 24 hrs by Western blot analysis; format: functional, cell-based; conditions: U-87MG ATCC, dose 5-20 µM
[8] = tested on: LN-229; assay: Induction of apoptosis in human LN-229 cells at 20 uM incubated for 24 hrs by Annexin V-APC/7-AAD staining based flow cytometric analysis relative to control; format: functional
[9] = tested on: LN-229; assay: Induction of apoptosis in human LN-229 cells assessed as late apoptotic cells at 20 uM incubated for 12 hrs by Annexin V-APC/7-AAD staining based flow cytometric analysis (reference value: 5.1 %); format: functional
[10] = tested on: U-87 MG; assay: Induction of apoptosis in human U-87 MG cells assessed as early apoptotic cells at 20 uM incubated for 24 hrs in presence of R7050 by Annexin V-APC/7-AAD staining based flow cytometric analysis (reference value: 3.44 %); format: functional, U-87MG ATCC
[11] = tested on: LN-229; assay: Induction of apoptosis in human LN-229 cells at 10 uM incubated for 48 hrs by Annexin V-APC/7-AAD staining based flow cytometric analysis (reference value: 7.32 +/- 0.71 %); format: functional
[12] = tested on: U-87 MG; assay: Induction of apoptosis in human U-87 MG cells assessed as late apoptotic cells at 20 uM incubated for 24 hrs by Annexin V-APC/7-AAD staining based flow cytometric analysis (reference value: 3.44 %); format: functional, U-87MG ATCC
[13] = tested on: U-87 MG; assay: Induction of apoptosis in human U-87 MG cells assessed as viable cells at 20 uM incubated for 48 hrs by Annexin V-APC/7-AAD staining based flow cytometric analysis (reference value: 94.6 %); format: functional, U-87MG ATCC; conditions: read-out: Activity
[14] = tested on: LN-229; assay: Induction of apoptosis in human LN-229 cells assessed as late apoptotic cells at 20 uM incubated for 24 hrs by Annexin V-APC/7-AAD staining based flow cytometric analysis (reference value: 3.56 %); format: functional
[15] = tested on: U-87 MG; assay: Induction of apoptosis in human U-87 MG cells at 10 uM incubated for 48 hrs by Annexin V-APC/7-AAD staining based flow cytometric analysis (reference value: 5.43 +/- 0.54 %); format: functional, U-87MG ATCC
[16] = tested on: LN-229; assay: Induction of apoptosis in human LN-229 cells assessed as late apoptotic cells at 20 uM incubated for 24 hrs by Annexin V-APC/7-AAD staining based flow cytometric analysis (reference value: 4.86 %); format: functional
[17] = tested on: U-87 MG; assay: Induction of apoptosis in human U-87 MG cells assessed as viable cells at 5 uM incubated for 24 hrs by Annexin V-APC/7-AAD staining based flow cytometric analysis (reference value: 94 %); format: functional, U-87MG ATCC; conditions: read-out: Activity
[18] = tested on: U-87 MG; assay: Induction of apoptosis in human U-87 MG cells assessed as early apoptotic cells at 5 uM incubated for 24 hrs by Annexin V-APC/7-AAD staining based flow cytometric analysis (reference value: 1.59 %); format: functional, U-87MG ATCC
[19] = tested on: U-87 MG; assay: Induction of apoptosis in human U-87 MG cells assessed as necrotic cells at 20 uM incubated for 24 hrs by Annexin V-APC/7-AAD staining based flow cytometric analysis (reference value: 1 %); format: functional, U-87MG ATCC
[20] = tested on: LN-229; assay: Induction of apoptosis in human LN-229 cells assessed as viable cells at 20 uM incubated for 24 hrs by Annexin V-APC/7-AAD staining based flow cytometric analysis (reference value: 91.7 %); format: functional; conditions: read-out: Activity
[21] = tested on: LN-229; assay: Induction of apoptosis in human LN-229 cells assessed as viable cells at 20 uM incubated for 48 hrs by Annexin V-APC/7-AAD staining based flow cytometric analysis (reference value: 91.7 %); format: functional; conditions: read-out: Activity
[22] = tested on: LN-229; assay: Induction of apoptosis in human LN-229 cells assessed as late apoptotic cells at 20 uM incubated for 48 hrs by Annexin V-APC/7-AAD staining based flow cytometric analysis (reference value: 5.1 %); format: functional
[23] = tested on: U-87 MG; assay: Induction of apoptosis in human U-87 MG cells assessed as early apoptotic cells at 20 uM incubated for 24 hrs by Annexin V-APC/7-AAD staining based flow cytometric analysis (reference value: 3.44 %); format: functional, U-87MG ATCC
[24] = tested on: U-87 MG; assay: Induction of apoptosis in human U-87 MG cells assessed as necrotic cells at 5 uM incubated for 24 hrs by Annexin V-APC/7-AAD staining based flow cytometric analysis (reference value: 0.21 %); format: functional, U-87MG ATCC
[25] = tested on: U-87 MG; assay: Induction of apoptosis in human U-87 MG cells at 20 uM incubated for 24 hrs by Annexin V-APC/7-AAD staining based flow cytometric analysis relative to control; format: functional, U-87MG ATCC
[26] = tested on: U-87 MG; assay: Induction of apoptosis in human U-87 MG cells assessed as late apoptotic cells at 10 uM incubated for 24 hrs by Annexin V-APC/7-AAD staining based flow cytometric analysis (reference value: 4.22 %); format: functional, U-87MG ATCC
[27] = tested on: U-87 MG; assay: Induction of apoptosis in human U-87 MG cells assessed as necrotic cells at 20 uM incubated for 12 hrs by Annexin V-APC/7-AAD staining based flow cytometric analysis (reference value: 1 %); format: functional, U-87MG ATCC
[28] = tested on: LN-229; assay: Induction of apoptosis in human LN-229 cells assessed as early apoptotic cells at 20 uM incubated for 24 hrs by Annexin V-APC/7-AAD staining based flow cytometric analysis (reference value: 0.91 %); format: functional
[29] = tested on: LN-229; assay: Induction of apoptosis in human LN-229 cells assessed as necrotic cells at 20 uM incubated for 48 hrs by Annexin V-APC/7-AAD staining based flow cytometric analysis (reference value: 0.7 %); format: functional
[30] = tested on: LN-229; assay: Induction of apoptosis in human LN-229 cells assessed as viable cells at 5 uM incubated for 24 hrs by Annexin V-APC/7-AAD staining based flow cytometric analysis (reference value: 95.4 %); format: functional; conditions: read-out: Activity
[31] = tested on: U-87 MG; assay: Induction of apoptosis in human U-87 MG cells assessed as late apoptotic cells at 5 uM incubated for 24 hrs by Annexin V-APC/7-AAD staining based flow cytometric analysis (reference value: 4.22 %); format: functional, U-87MG ATCC

**Q.** What does the source list for `CCCCCCCNC(=O)[C@H](Cc1c[nH]c2ccccc12)NC(=O)C(C)(c1c[nH]c2ccccc12)c1c[nH]c2ccccc12`?
**A.** Activity [1]: 5.88%; Activity [2]: 1.45%; Activity [3]: 2.87%; Activity [4]: 4.46%; Activity [5]: 4.38%; viability at 20 µM [6]: 92%; Activity [7]: Active; Activity [8]: 31.44%; Activity [9]: 4.06%; Activity [10]: 8.66%; Activity [11]: 61.42%; Activity [12]: 4.03%; viability at 20 µM [13]: 78.7%; Activity [14]: 4.99%; Activity [15]: 17.37%; Activity [16]: 7.62%; viability at 5 µM [17]: 92.9%; Activity [18]: 2.06%; Activity [19]: 1.37%; viability at 20 µM [20]: 81.7%; viability at 20 µM [21]: 37.7%; Activity [22]: 41.9%; Activity [23]: 16.8%; Activity [24]: 0.14%; Activity [25]: 24.89%; Activity [26]: 6.16%; Activity [27]: 1.01%; Activity [28]: 24.2%; Activity [29]: 1.9%; viability at 5 µM [30]: 95%; Activity [31]: 4.92%
